Reference: ChEMBL document CHEMBL5154804, “Species-Selective Targeting of Fungal Hsp90: Design, Synthesis, and Evaluation of Novel 4,5-Diarylisoxazole Derivatives for the Combination Treatment of Azole-Resistant Candidiasis” (J Med Chem, 2022)

Experiments:
Candida albicans [1] = experiment: Synergistic antifungal activity against fluconazole-resistant Candida albicans 901 assessed as inhibition of fungal growth in presence of fluconazole by checker board microdilution assay; format: functional
Candida albicans [2] = experiment: Synergistic antifungal activity against fluconazole-resistant Candida albicans 904 assessed as inhibition of fungal growth in presence of fluconazole by checker board microdilution assay; format: functional
Candida albicans [3] = experiment: Synergistic antifungal activity against fluconazole-resistant Candida albicans 632 assessed as inhibition of fungal growth in presence of fluconazole by checker board microdilution assay; format: functional
Candida albicans [4] = experiment: Synergistic antifungal activity against fluconazole-resistant Candida albicans 100 assessed as inhibition of fungal growth in presence of fluconazole by checker board microdilution assay; format: functional
Candida albicans [5] = experiment: Synergistic antifungal activity against fluconazole-resistant Candida albicans 103 assessed as inhibition of fungal growth in presence of fluconazole by checker board microdilution assay; format: functional
Candida albicans [6] = experiment: Synergistic antifungal activity against fluconazole-resistant Candida albicans 311 assessed as inhibition of fungal growth in presence of fluconazole by checker board microdilution assay; format: functional
Candida albicans [7] = experiment: Antifungal activity against fluconazole-resistant Candida albicans 901 assessed as inhibition of fungal growth by checker board microdilution assay; format: functional
Candida albicans [8] = experiment: Antifungal activity against fluconazole-resistant Candida albicans 904 assessed as inhibition of fungal growth by checker board microdilution assay; format: functional
Candida albicans [9] = experiment: Antifungal activity against fluconazole-resistant Candida albicans 632 assessed as inhibition of fungal growth by checker board microdilution assay; format: functional
Candida albicans [10] = experiment: Antifungal activity against fluconazole-resistant Candida albicans 100 assessed as inhibition of fungal growth by checker board microdilution assay; format: functional
Candida albicans [11] = experiment: Antifungal activity against fluconazole-resistant Candida albicans 103 assessed as inhibition of fungal growth by checker board microdilution assay; format: functional
Candida albicans [12] = experiment: Antifungal activity against fluconazole-resistant Candida albicans 311 assessed as inhibition of fungal growth by checker board microdilution assay; format: functional
Candida albicans [13] = experiment: Synergetic antifungal activity against fluconazole-resistant Candida albicans 901 assessed as fractional inhibitory concentration index in presence of fluconazole by checker board microdilution assay; format: functional
Candida albicans [14] = experiment: Synergetic antifungal activity against fluconazole-resistant Candida albicans 904 assessed as fractional inhibitory concentration index in presence of fluconazole by checker board microdilution assay; format: functional
Candida albicans [15] = experiment: Synergetic antifungal activity against fluconazole-resistant Candida albicans 632 assessed as fractional inhibitory concentration index in presence of fluconazole by checker board microdilution assay; format: functional
Candida albicans [16] = experiment: Synergetic antifungal activity against fluconazole-resistant Candida albicans 100 assessed as fractional inhibitory concentration index in presence of fluconazole by checker board microdilution assay; format: functional
Candida albicans [17] = experiment: Synergetic antifungal activity against fluconazole-resistant Candida albicans 103 assessed as fractional inhibitory concentration index in presence of fluconazole by checker board microdilution assay; format: functional
Candida albicans [18] = experiment: Synergetic antifungal activity against fluconazole-resistant Candida albicans 311 assessed as fractional inhibitory concentration index in presence of fluconazole by checker board microdilution assay; format: functional
A549 = experiment: Cytotoxicity against human A549 cell assessed as inhibition of cell growth after 24 hrs by MTT assay; format: functional, cell-based; settings: A549, 24 h
MCF7 = experiment: Cytotoxicity against human MCF7 cell assessed as inhibition of cell growth after 24 hrs by MTT assay; format: functional, cell-based; settings: MCF7, 24 h
HepG2 = experiment: Cytotoxicity against human HepG2 cell assessed as inhibition of cell growth after 24 hrs by MTT assay; format: functional, cell-based; settings: HepG2, 24 h
[19] = Cytotoxicity against human THLE-2 cell assessed as inhibition of cell growth after 24 hrs by MTT assay; format: toxicity, cell-based; settings: THLE-2 cells
[20] = Cytotoxicity against human BEAS-2B cell assessed as inhibition of cell growth after 24 hrs by MTT assay; format: toxicity, cell-based; settings: BEAS-2B cells
[21] = Cytotoxicity against mouse NIH3T3 cell assessed as inhibition of cell growth after 24 hrs by MTT assay; format: toxicity, cell-based; settings: NIH3T3 cells
RAW264.7 = experiment: Cytotoxicity against mouse RAW264.7 cell assessed as inhibition of cell growth after 24 hrs by MTT assay; format: functional, cell-based; settings: RAW264.7, 24 h
[22] = Cytotoxicity against mouse BV-2 cell assessed as inhibition of cell growth after 24 hrs by MTT assay; format: toxicity, cell-based; settings: BV-2 cells
[23] = Binding affinity to recombinant Candida albicans Hsp90 NBD expressed in Escherichia coli by SPR assay
Heat shock protein HSP90 = Heat shock protein HSP90 (Homo sapiens, UniProt P07900+P08238); experiment: Binding affinity to human Hsp90 expressed in Escherichia coli by SPR assay
[24] = Metabolic stability in human liver microsomes assessed as half life in presence of NADPH cofactor under shaking condition for 10 mins measured after 5 to 60 mins by LC-MS/MS analysis; format: ADME, Microsome; settings: time 15-70 min
[25] = Metabolic stability in human liver microsomes assessed as microsomal intrinsic clearance in presence of NADPH cofactor under shaking condition for 10 mins measured after 5 to 60 mins by LC-MS/MS analysis; format: ADME, Microsome; settings: time 15-70 min
[26] = Metabolic stability in human liver microsomes assessed as intrinsic clearance in presence of NADPH cofactor under shaking condition for 10 mins measured after 5 to 60 mins by LC-MS/MS analysis; format: ADME, Microsome; settings: time 15-70 min
[27] = Metabolic stability in human liver microsomes assessed as compound remaining in presence of NADPH cofactor under shaking condition for 10 mins measured after 60 mins by LC-MS/MS analysis; format: ADME, Microsome; settings: time 70 min, read-out: Stability
[28] = Stability in human plasma assessed as compound remaining at 120 mins by LC-MS/MS analysis; format: ADME, cell-free; settings: read-out: Stability
[29] = Stability in human plasma assessed as half life at 120 mins by LC-MS/MS analysis; format: ADME, cell-free
CYP1A2 = target: T1, CYP1A2 (Homo sapiens, UniProt P05177); experiment: Inhibition of CYP1A2 in human liver microsome at 10 uM using phenacetin as substrate incubated for 10 mins in presence of NADPH cofactor by LC-MS/MS analysis; format: ADME; settings: liver microsomes, probe phenacetin
T1 sequence (P05177 whole entry): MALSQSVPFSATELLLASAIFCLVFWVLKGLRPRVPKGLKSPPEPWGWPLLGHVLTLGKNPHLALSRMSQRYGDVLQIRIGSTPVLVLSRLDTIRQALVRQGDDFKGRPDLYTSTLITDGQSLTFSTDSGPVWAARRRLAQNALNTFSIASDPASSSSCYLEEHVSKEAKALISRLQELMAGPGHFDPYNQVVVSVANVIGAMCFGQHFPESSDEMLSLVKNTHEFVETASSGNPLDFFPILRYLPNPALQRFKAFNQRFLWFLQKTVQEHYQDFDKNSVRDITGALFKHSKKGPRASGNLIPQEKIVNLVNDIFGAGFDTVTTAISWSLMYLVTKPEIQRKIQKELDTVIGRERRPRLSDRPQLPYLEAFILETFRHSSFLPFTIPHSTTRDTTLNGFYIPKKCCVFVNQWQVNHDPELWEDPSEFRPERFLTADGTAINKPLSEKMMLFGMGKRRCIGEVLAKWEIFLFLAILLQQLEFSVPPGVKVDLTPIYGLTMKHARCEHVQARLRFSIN

CYP2C9 = CYP2C9 (Homo sapiens, UniProt P11712); experiment: Inhibition of CYP2C9 in human liver microsome at 10 uM using diclofenac as substrate incubated for 10 mins in presence of NADPH cofactor by LC-MS/MS analysis; format: ADME; settings: liver microsomes, probe diclofenac
CYP2C9, sequence (P11712 whole entry): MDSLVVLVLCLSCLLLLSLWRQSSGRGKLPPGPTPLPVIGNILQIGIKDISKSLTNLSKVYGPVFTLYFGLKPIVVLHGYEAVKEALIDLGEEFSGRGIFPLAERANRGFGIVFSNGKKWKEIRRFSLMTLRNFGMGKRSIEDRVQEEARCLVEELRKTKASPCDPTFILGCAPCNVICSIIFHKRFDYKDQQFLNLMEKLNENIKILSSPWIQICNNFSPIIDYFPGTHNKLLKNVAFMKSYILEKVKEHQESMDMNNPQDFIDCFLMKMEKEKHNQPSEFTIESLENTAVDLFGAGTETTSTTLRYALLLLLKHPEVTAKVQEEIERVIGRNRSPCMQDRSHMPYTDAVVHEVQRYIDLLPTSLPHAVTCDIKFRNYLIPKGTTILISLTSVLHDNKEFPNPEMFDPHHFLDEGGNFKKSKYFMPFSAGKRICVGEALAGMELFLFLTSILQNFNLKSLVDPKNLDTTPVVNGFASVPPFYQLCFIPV

CYP2C19 = CYP2C19 (Homo sapiens, UniProt P33261); experiment: Inhibition of CYP2C19 in human liver microsome at 10 uM using S-mephenytoin as substrate incubated for 10 mins in presence of NADPH cofactor by LC-MS/MS analysis; format: ADME; settings: liver microsomes, probe S-mephenytoin
CYP2C19, sequence (P33261 whole entry): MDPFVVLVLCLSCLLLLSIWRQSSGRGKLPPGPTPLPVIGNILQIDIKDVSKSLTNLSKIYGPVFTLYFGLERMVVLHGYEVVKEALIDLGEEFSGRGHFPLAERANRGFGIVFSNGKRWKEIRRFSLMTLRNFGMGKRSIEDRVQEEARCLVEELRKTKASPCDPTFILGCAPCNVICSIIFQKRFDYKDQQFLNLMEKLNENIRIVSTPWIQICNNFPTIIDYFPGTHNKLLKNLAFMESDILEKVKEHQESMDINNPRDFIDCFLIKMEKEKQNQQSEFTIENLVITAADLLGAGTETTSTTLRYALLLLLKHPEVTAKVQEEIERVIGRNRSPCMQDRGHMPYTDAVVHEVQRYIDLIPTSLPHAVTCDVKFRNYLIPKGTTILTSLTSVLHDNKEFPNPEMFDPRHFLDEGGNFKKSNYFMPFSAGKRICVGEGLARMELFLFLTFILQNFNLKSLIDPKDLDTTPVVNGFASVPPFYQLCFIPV

CYP2D6 = CYP2D6 (Homo sapiens, UniProt P10635); experiment: Inhibition of CYPD6 in human liver microsome at 10 uM using dextromethorphan as substrate incubated for 10 mins in presence of NADPH cofactor by LC-MS/MS analysis; format: ADME; settings: liver microsomes, probe dextromethorphan
CYP2D6, sequence (P10635 whole entry): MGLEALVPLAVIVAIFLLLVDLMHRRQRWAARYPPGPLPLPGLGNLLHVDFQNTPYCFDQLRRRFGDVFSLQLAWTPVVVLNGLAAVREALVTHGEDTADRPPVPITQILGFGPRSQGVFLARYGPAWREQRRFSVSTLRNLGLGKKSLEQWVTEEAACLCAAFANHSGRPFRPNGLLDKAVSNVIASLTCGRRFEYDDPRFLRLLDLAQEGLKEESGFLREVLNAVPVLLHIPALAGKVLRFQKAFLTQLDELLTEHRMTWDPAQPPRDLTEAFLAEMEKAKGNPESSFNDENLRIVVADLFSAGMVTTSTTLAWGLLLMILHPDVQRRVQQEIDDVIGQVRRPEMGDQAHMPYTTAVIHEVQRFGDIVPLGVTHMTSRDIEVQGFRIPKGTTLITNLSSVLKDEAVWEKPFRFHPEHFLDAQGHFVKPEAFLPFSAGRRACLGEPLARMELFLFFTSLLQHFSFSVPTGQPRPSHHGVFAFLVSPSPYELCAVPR

CYP3A4 = CYP3A4 (Homo sapiens, UniProt P08684); experiment: Inhibition of CYP3A4 in human liver microsome at 10 uM using midazolam as substrate incubated for 10 mins in presence of NADPH cofactor by LC-MS/MS analysis; format: ADME; settings: liver microsomes, probe midazolam
CYP3A4, sequence (P08684 whole entry): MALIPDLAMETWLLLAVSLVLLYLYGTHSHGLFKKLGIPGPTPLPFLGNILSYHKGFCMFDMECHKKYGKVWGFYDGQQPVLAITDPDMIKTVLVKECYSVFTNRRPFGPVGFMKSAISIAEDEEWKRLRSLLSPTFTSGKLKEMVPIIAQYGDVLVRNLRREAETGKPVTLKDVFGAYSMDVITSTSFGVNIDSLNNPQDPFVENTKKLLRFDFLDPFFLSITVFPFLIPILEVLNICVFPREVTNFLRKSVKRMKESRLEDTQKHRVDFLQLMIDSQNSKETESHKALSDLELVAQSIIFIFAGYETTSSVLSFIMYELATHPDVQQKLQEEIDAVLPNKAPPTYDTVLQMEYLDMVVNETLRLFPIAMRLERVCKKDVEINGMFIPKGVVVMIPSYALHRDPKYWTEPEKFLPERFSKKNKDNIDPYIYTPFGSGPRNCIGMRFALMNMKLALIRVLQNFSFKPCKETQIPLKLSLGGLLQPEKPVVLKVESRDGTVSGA

Candida albicans [30] = experiment: Potentiation of fluconazole-induced antifungal activity against fluconazole-resistant Candida albicans 901 assessed as fluconazole MIC by checker board microdilution assay; format: functional
Candida albicans [31] = experiment: Potentiation of fluconazole-induced antifungal activity against fluconazole-resistant Candida albicans 904 assessed as fluconazole MIC by checker board microdilution assay; format: functional
Candida albicans [32] = experiment: Potentiation of fluconazole-induced antifungal activity against fluconazole-resistant Candida albicans 632 assessed as fluconazole MIC by checker board microdilution assay; format: functional
Candida albicans [33] = experiment: Potentiation of fluconazole-induced antifungal activity against fluconazole-resistant Candida albicans 100 assessed as fluconazole MIC by checker board microdilution assay; format: functional
Candida albicans [34] = experiment: Potentiation of fluconazole-induced antifungal activity against fluconazole-resistant Candida albicans 103 assessed as fluconazole MIC by checker board microdilution assay; format: functional
Candida albicans [35] = experiment: Potentiation of fluconazole-induced antifungal activity against fluconazole-resistant Candida albicans 311 assessed as fluconazole MIC by checker board microdilution assay; format: functional

Structure (SMILES): CCNC(=O)c1noc(-c2cc(-c3ccc(C)cc3)c(O)cc2O)c1-c1ccc(CN2CCCCC2)cc1
- MIC80 (Candida albicans [1]): 0.25 µg/mL
- MIC80 (Candida albicans [2]): 0.25 µg/mL
- MIC80 (Candida albicans [3]): 0.5 µg/mL
- MIC80 (Candida albicans [4]): 0.25 µg/mL
- MIC80 (Candida albicans [5]): 0.5 µg/mL
- MIC80 (Candida albicans [6]): 1 µg/mL
- MIC80 (Candida albicans [7]): > 64 µg/mL
- MIC80 (Candida albicans [8]): > 64 µg/mL
- MIC80 (Candida albicans [9]): > 64 µg/mL
- MIC80 (Candida albicans [10]): > 64 µg/mL
- MIC80 (Candida albicans [11]): > 64 µg/mL
- MIC80 (Candida albicans [12]): > 64 µg/mL
- fractional inhibitory concentration index (FICI) (Candida albicans [13]): 0.02
- fractional inhibitory concentration index (FICI) (Candida albicans [14]): 0.035
- fractional inhibitory concentration index (FICI) (Candida albicans [15]): 0.039
- fractional inhibitory concentration index (FICI) (Candida albicans [16]): 0.02
- fractional inhibitory concentration index (FICI) (Candida albicans [17]): 0.039
- fractional inhibitory concentration index (FICI) (Candida albicans [18]): 0.047
- IC50 (A549): 13.8 µM
- IC50 (MCF7): 5.49 µM
- IC50 (HepG2): 4.71 µM
- IC50 at 24 h [19]: 5.72 µM
- IC50 at 24 h [20]: 10 µM
- IC50 at 24 h [21]: 0.73 µM
- IC50 (RAW264.7): 3.87 µM
- IC50 at 24 h [22]: 4.06 µM
- Kd [23]: 0.139 µM
- Kd (Heat shock protein HSP90): > 25 µM
- half-life [24]: 43.3 min
- CLint [25]: 32 µL/min/mg
- CLint [26]: 28.8 mL/min/kg
- remaining at 1.167 h [27]: 37.9%
- remaining at 2 h [28]: 90.6%
- half-life [29]: > 288 min
- inhibition at 10 min, 10 µM (CYP1A2): 12%
- inhibition at 10 min, 10 µM (CYP2C9): 39.2%
- inhibition at 10 min, 10 µM (CYP2C19): 25.4%
- inhibition at 10 min, 10 µM (CYP2D6): 76.6%
- inhibition at 10 min, 10 µM (CYP3A4): 39.8%
- MIC80 (Candida albicans [30]): 1 µg/mL
- MIC80 (Candida albicans [31]): 2 µg/mL
- MIC80 (Candida albicans [32]): 2 µg/mL
- MIC80 (Candida albicans [33]): 1 µg/mL
- MIC80 (Candida albicans [34]): 2 µg/mL
- MIC80 (Candida albicans [35]): 2 µg/mL
